Test results: ChEMBL document CHEMBL5653615 (J Biol Chem, 2013)

Columns and labels:
[1] = biological target: Tyrosine-protein kinase FRK (Homo sapiens) (UniProt P42685); test: Inhibition of human FRK at 500 nM by HotSpot assay relative to control
[2] = biological target: CDK4/Cyclin D3 (Homo sapiens) (UniProt P11802+P30281); test: Inhibition of human CDK4/cyclin D3 at 500 nM by HotSpot assay relative to control; assay type: protein-complex assay
[3] = biological target: Tyrosine-protein kinase Lck (Homo sapiens) (UniProt P06239); test: Inhibition of human LCK at 500 nM by HotSpot assay relative to control
[4] = biological target: Myosin light chain kinase, smooth muscle (Homo sapiens) (UniProt Q15746); test: Inhibition of human MYLK at 500 nM by HotSpot assay relative to control
[5] = biological target: T1, Serine/threonine-protein kinase BRSK1 (Homo sapiens) (UniProt Q8TDC3); test: Inhibition of human BRSK1 at 500 nM by HotSpot assay relative to control
T1 sequence (whole entry): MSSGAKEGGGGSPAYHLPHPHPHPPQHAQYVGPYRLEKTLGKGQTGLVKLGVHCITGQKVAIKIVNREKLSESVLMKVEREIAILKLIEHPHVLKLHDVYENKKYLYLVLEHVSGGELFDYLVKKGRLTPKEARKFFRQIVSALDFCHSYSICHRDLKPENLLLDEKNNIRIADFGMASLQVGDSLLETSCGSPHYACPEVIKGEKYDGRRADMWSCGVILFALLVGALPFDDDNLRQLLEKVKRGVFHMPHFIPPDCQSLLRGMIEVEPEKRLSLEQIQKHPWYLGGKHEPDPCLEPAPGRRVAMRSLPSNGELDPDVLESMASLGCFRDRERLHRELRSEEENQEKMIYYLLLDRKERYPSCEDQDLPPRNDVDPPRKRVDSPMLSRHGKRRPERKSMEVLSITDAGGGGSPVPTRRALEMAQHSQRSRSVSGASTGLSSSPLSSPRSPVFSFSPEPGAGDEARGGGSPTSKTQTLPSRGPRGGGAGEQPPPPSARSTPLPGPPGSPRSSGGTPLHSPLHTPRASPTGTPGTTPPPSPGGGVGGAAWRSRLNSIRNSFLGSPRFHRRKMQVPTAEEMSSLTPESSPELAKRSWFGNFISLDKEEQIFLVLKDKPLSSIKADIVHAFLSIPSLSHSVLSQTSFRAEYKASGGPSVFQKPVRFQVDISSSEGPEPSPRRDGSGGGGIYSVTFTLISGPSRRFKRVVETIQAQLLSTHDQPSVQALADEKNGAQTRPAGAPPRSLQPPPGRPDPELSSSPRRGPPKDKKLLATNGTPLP

[6] = biological target: Dual specificity protein kinase CLK3 (Homo sapiens) (UniProt P49761); test: Inhibition of human CLK3 at 500 nM by HotSpot assay relative to control
[7] = biological target: Maternal embryonic leucine zipper kinase (Homo sapiens) (UniProt Q14680); test: Inhibition of human MELK at 500 nM by HotSpot assay relative to control
[8] = biological target: Protein kinase C gamma type (Homo sapiens) (UniProt P05129); test: Inhibition of human PKCg at 500 nM by HotSpot assay relative to control
[9] = biological target: Ribosomal protein S6 kinase beta-2 (Homo sapiens) (UniProt Q9UBS0); test: Inhibition of human RPS6KB2 at 500 nM by HotSpot assay relative to control
[10] = biological target: T2, Tyrosine-protein kinase receptor TYRO3 (Homo sapiens) (UniProt Q06418); test: Inhibition of human SKY at 500 nM by HotSpot assay relative to control
T2 sequence (whole entry): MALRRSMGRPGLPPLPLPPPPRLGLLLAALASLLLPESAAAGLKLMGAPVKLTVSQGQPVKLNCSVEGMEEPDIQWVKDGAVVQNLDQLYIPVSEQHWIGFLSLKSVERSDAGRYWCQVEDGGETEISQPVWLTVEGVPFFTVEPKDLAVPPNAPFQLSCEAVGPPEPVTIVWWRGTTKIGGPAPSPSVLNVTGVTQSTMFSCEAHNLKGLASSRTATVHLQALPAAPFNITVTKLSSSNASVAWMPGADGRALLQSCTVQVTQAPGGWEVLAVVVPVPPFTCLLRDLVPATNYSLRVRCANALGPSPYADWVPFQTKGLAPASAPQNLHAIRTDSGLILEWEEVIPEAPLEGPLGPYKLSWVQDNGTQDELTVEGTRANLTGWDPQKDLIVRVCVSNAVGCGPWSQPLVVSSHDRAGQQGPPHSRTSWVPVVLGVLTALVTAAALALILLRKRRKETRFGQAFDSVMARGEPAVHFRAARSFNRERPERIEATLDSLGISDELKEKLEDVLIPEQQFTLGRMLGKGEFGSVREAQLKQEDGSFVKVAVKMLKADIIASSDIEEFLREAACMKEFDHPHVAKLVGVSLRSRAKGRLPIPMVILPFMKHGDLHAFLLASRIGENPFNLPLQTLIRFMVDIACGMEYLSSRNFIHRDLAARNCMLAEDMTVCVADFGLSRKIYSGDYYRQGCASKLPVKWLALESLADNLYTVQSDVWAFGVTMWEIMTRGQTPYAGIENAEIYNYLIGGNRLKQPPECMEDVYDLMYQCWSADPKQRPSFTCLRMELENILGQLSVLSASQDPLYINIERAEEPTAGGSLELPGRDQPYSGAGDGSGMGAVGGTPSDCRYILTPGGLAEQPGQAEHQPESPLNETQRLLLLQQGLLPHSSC

[11] = biological target: Serine/threonine-protein kinase PAK 4 (Homo sapiens) (UniProt O96013); test: Inhibition of human PAK4 at 500 nM by HotSpot assay relative to control
[12] = biological target: Rho-associated protein kinase 2 (Homo sapiens) (UniProt O75116); test: Inhibition of human ROCK2 at 500 nM by HotSpot assay relative to control
[13] = biological target: T3, Serine/threonine-protein kinase STK11 (Homo sapiens) (UniProt Q15831); test: Inhibition of human LKB1 at 500 nM by HotSpot assay relative to control
T3 sequence (whole entry): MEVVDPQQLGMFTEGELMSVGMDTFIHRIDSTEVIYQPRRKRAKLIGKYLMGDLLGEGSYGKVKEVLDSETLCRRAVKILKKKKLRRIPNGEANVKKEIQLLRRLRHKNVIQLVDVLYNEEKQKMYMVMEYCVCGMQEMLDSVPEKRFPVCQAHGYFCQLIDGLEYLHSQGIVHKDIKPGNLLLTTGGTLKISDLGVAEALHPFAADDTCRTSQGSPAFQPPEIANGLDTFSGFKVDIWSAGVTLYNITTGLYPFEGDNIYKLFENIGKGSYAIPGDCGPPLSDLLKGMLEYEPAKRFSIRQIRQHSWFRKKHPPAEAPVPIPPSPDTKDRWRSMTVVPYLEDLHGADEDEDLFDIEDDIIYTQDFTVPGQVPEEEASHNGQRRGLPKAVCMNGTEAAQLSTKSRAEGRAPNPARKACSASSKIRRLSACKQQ

Myosin light chain kinase, smooth muscle (Homo sapiens), sequence (Q15746 whole entry): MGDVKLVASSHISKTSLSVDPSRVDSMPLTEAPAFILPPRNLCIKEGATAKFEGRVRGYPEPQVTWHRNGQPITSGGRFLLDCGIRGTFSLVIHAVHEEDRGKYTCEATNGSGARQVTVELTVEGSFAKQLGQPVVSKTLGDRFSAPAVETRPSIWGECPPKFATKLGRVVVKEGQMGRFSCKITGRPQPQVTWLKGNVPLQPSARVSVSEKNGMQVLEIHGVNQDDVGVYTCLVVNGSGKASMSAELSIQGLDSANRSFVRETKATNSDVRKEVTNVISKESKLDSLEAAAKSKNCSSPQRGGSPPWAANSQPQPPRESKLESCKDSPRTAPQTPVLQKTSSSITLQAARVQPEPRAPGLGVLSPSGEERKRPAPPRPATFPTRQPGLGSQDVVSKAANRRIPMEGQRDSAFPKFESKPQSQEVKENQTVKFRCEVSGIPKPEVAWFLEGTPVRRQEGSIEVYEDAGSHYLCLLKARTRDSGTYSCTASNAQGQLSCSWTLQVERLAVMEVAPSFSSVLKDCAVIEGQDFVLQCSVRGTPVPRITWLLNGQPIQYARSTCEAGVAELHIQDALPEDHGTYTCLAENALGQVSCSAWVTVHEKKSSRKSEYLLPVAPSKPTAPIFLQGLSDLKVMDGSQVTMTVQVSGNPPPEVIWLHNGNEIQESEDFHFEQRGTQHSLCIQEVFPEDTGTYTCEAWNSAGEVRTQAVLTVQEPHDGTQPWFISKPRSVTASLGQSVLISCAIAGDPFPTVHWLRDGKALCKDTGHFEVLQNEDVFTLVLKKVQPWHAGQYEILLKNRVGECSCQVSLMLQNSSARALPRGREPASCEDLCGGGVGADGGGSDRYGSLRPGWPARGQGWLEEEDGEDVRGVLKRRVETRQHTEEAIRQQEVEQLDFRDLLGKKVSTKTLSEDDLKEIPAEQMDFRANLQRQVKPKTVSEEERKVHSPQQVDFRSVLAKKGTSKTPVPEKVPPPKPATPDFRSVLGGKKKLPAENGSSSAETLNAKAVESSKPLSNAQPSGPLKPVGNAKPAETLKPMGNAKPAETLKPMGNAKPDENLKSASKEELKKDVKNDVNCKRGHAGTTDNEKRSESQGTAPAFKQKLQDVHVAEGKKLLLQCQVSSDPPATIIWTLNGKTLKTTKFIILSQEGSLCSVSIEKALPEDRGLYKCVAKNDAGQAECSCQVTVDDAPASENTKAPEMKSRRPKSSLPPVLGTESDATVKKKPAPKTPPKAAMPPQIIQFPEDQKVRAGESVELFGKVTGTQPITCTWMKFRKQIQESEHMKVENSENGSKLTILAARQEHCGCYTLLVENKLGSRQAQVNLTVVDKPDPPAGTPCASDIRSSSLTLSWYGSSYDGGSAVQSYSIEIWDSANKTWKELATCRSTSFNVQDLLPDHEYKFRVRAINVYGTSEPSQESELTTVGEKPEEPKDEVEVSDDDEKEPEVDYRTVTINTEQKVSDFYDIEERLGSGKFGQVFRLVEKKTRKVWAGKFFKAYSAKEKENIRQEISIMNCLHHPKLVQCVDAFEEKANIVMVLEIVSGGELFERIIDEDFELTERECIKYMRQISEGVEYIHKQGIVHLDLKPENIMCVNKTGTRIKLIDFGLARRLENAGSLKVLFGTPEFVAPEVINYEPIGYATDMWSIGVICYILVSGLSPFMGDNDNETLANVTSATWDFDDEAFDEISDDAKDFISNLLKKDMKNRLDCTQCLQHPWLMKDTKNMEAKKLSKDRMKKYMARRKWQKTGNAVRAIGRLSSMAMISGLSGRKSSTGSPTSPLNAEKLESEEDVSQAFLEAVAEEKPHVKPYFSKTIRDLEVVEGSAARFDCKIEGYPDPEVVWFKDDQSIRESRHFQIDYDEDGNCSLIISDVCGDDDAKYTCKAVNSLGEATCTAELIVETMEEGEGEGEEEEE
Tyrosine-protein kinase Lck (Homo sapiens), sequence (P06239 2-509 limits assumed): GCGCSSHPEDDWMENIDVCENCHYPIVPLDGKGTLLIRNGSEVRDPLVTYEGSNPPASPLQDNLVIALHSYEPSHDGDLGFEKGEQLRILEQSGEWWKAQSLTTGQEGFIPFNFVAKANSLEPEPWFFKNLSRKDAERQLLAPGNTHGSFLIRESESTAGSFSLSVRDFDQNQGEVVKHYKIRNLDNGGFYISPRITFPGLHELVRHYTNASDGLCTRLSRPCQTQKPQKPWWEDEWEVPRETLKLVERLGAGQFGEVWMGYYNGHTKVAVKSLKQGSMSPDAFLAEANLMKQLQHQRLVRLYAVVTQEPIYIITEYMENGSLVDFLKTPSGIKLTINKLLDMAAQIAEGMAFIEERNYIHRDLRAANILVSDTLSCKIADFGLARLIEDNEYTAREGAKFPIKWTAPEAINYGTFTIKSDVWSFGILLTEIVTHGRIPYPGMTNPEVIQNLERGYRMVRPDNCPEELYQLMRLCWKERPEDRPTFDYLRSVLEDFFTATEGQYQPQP
Maternal embryonic leucine zipper kinase (Homo sapiens), sequence (Q14680 whole entry, looked up): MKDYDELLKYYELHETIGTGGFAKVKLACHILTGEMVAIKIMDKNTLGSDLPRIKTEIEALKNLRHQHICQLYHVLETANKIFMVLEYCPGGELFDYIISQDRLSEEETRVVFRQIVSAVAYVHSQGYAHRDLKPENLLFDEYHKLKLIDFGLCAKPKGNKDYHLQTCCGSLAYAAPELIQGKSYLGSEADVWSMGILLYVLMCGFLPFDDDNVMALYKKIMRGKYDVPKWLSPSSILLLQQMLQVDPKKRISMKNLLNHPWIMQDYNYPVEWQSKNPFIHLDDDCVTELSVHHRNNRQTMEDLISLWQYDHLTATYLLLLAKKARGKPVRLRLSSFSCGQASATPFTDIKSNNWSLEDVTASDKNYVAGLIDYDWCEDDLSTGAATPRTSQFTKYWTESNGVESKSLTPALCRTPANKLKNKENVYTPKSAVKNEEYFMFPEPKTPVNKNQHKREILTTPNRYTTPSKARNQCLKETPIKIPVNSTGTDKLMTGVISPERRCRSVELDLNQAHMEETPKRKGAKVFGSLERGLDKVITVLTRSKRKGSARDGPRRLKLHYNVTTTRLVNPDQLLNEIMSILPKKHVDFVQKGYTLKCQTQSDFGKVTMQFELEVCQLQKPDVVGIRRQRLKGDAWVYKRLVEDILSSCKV
Serine/threonine-protein kinase PAK 4 (Homo sapiens), sequence (O96013 whole entry, looked up): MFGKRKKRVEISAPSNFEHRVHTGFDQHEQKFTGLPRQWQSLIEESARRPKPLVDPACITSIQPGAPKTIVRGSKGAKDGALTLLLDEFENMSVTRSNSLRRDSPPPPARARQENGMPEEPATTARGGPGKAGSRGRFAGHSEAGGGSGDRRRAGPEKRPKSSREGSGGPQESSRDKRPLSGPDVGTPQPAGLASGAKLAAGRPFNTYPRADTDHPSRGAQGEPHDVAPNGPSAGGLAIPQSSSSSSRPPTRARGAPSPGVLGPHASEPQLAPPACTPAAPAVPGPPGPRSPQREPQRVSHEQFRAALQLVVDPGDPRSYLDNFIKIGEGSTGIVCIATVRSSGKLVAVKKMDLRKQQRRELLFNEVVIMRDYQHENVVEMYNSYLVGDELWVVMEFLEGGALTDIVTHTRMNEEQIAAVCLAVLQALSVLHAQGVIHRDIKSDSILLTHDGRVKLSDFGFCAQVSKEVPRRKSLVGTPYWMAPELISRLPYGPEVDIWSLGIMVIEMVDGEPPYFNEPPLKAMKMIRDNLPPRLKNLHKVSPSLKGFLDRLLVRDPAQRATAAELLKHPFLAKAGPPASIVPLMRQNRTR
Ribosomal protein S6 kinase beta-2 (Homo sapiens), sequence (Q9UBS0 whole entry): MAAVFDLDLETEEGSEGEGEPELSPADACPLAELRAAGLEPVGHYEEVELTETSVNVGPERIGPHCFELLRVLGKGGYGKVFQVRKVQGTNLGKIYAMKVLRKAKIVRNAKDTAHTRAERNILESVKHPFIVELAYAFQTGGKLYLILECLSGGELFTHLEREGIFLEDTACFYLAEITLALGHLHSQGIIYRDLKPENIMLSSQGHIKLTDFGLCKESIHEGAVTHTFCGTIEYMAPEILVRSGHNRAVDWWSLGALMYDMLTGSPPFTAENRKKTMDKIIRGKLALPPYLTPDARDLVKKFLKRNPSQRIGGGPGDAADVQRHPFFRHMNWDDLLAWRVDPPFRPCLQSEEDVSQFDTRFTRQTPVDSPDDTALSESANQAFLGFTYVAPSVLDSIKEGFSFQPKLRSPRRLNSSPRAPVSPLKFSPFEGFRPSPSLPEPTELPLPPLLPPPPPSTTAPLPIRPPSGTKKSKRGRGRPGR

SMILES: Oc1n[nH]c2nnc(-c3c(-c4ccccc4)nn4ccccc34)cc12
- inhibition [1]: -4.01%
- inhibition [2]: -0.94%
- inhibition [3]: -0.49%
- inhibition [4]: 1.22%
- inhibition [5]: -2.29%
- inhibition [6]: 1.04%
- inhibition [7]: -1.3%
- inhibition [8]: -2.44%
- inhibition [9]: -8.15%
- inhibition [10]: 10.1%
- inhibition [11]: -0.93%
- inhibition [12]: 0.7%
- inhibition [13]: 7.3%

SMILES: Nc1n[nH]c2nnc(-c3c(-c4ccccc4)nn4ccccc34)cc12
- inhibition [1]: -1.32%
- inhibition [2]: -0.36%
- inhibition [3]: 4.93%
- inhibition [4]: 1.66%
- inhibition [5]: 1.41%
- inhibition [6]: 5.1%
- inhibition [7]: -1.59%
- inhibition [8]: -2.64%
- inhibition [9]: -4.11%
- inhibition [10]: 2.41%
- inhibition [11]: -1.44%
- inhibition [12]: 10.4%
- inhibition [13]: 8.15%
